Here are results for four compounds from US9062123B2, “Labelled adrenomedullin derivatives and their use for imaging and therapy” (PLUMOSCIENCE INC., priority 2004, dated 2015).

Where two headings read alike, the source gives them in different places. Ends that are not written are not given here.

Data set [1] in a line: Plasma kinetics of 99mTc-cyclic AM and 99mTc-linear AM in dogs. It counts as in vivo, dog. Conditions: two-compartment model.
Procedure: The radiolabelled AM derivatives were injected in a volume of 1.5 mL into a right jugular vein catheter. A series of 200 μl blood samples were collected 1 min after the initial injection, then repeated every 5 min for a 30-min period. After each collection, an equal volume of saline was injected into the animal to maintain blood volume and pressure. The blood samples were then placed in a gamma counter (model 1470 Wizard, Wallac, Finland) to determine ^99mTc activity. Results were expressed as a percentage of total radioactivity injected.
For data set [2] the following is noted: dog, in vivo, iv.
Procedure: Following intravenous injection of linear ^99mTc hAM1-52, dynamic acquisition of the lungs, heart, liver and kidneys was recorded for a 30-min period (one frame/sec during the first minute, then one frame/min for the remaining time). Static acquisitions were also recorded for whole individual organs, including lungs, kidneys, liver, heart, bladder, gallbladder and muzzle, at 30, 60, 120, 240 minutes after initial injection. These recordings were performed both in ventral and dorsal positions. Dynamic and static acquisitions were evaluated by using Matlab version 7.01 image analysis tools software. The ^99mTc total count, ^99mTc mean count, and region of interest (ROI) size were calculated for each organ. Data correction was applied for 1) radioactive decay, 2) table correction (dorsal images only), 3) geometric mean, and 4) organ's attenuation based on transmission factor. Results were expressed as a percentage of total radioactivity injected.
The conditions of data set [3]: rat, in vivo. The source says: The animals were then sacrificed and the lungs, liver, kidneys (en bloc with the adrenal glands) and heart were removed and gravity drained.
The conditions of data set [4]: dog, in vivo. The procedure: FIG. 16 illustrates in vivo single-pass measurement of purified ^99mTc linear hAM1-52 clearance in dogs. Dogs were anesthetized and a catheter was inserted into the carotid artery and positioned just above the aortic valve. This catheter is connected to a peristaltic pump for automated blood withdrawal. Another catheter is placed into the jugular vein and positioned in the right ventricular outflow tract to allow bolus injection of the study tracers. A bolus was prepared by adding 2 mCi of purified ^99mTc linear hAM1-52 to 3 ml of Evans blue dye labeled albumin and 0.9% saline for a final volume of 6 ml. A single bolus indicator-dilution experiment was performed. The collected samples were processed and indicator-dilution curves constructed and analysed. Mean tracer ^99mTc linear hAM1-52 AM extraction during the pulmonary transit time was computed from the curves. Mean tracer extraction corresponds to the difference between the areas of the outflow curve of the vascular reference (albumin) and that of the extracted tracer (^99mTc linear hAM1-52). Recirculation of the tracers apparent in the terminal portion of the curves is removed by linear extrapolation of the semi-logarithmic down slopes.

Data set [5] in a line: Kidney uptake of 99mTc-linear AM in rats with monocrotaline kidney damage. The data set is classed as in vivo, rat. Conditions: for kidney activity, % of total activity injected: external counting of the organs; for kidney uptake, % of total activity injected: external detection by gamma camera, 30 minutes. The procedure:
Kidney damage was induced by a single intraperitoenal injection of monocrotaline 60 mg/kg in rats. Three weeks later the animal received were anaesthetized and mechanically ventilated. […] By both methods, the activity in the kidneys was expressed as a percentage of the total activity injected.

For data set [6] the following is noted: for plasma level: after 10 minutes. As to the method:
The animals were anesthetized by an initial intra-muscular dose of xylazine (10 mg/kg) and ketamine (50 mg/kg), followed by an intraperitoneal injection of heparin (2000 U, Sigma Chemical Co.). Additional doses of xylazine/ketamine were used if noxious stimuli (hind feet pinching) could elicit nociceptive motor reflexes or changes of the systemic blood pressure.
99mTc-AM-L was injected in a volume of 200 μl (0.3 pmol, 0.5 mCi) into the right jugular vein.
Differences between groups were evaluated by two-tailed independent samples t-tests. Plasma kinetics of ^99mTc-AM-L were analyzed using a two compartments pharmacokinetic model with Prism v4.0 software and the fitted curves were compared using an F test. All values are reported as means±standard deviations.

The conditions of data set [7]: in vivo. The source says: FIGS. 18 and 19 illustrate respectively images of the lungs of a dog and a rat to which purified ^99mTc linear hAM1-52 has been administered.
The conditions of data set [8]: dog, in vivo. The source holds these as a separate data set.
Procedure: Following intravenous injection, dynamic acquisition of the lungs, heart, liver and kidneys was recorded for a 30-min period (one frame/sec during the first minute, then one frame/min for the remaining time). Static acquisitions was also recorded for whole individual organs, including lungs, kidneys, liver, heart, bladder, gallbladder and muzzle, at 30, 60, 120, 240 minutes after initial injection. These recordings were performed both in ventral and dorsal positions. Dynamic and static acquisitions were evaluated by using Matlab version 7.01 image analysis tools software. The ^99mTc total count, ^99mTc mean count, and region of interest (ROI) size were calculated for each organ. Data correction was applied for 1) radioactive decay, 2) table correction (dorsal images only), 3) geometric mean, and 4) organ's attenuation based on transmission factor. Results were expressed as a percentage of total radioactivity injected.
The images were acquired using a Siemens dual hear Ecam Gamma camera 120 min after injection of the compound.
Data set [9] can be described thus: Plasma kinetics of 125I-rAM(1-50) after single intravenous injection in rats. It counts as in vivo, rat. The conditions noted are these: given 5 min before the 125I-rAM(1-50) bolus. The procedure:
All experimental procedures were performed in accordance with the regulations and ethical guidelines from Canadian Council for the Care of Laboratory Animals, and received approval by the Animal Ethics and Research Committee of the Montreal Heart Institute. Male Sprague-Dawley rats (Charles River), weighing between 400-450 g, were anaesthetized by an initial intramuscular dose of xylazine (10 mg/kg of body weight) and ketamine (50 mg/kg of body weight), followed by an intra-peritoneal injection of heparin (2000 units; Sigma). Catheters were inserted into the right carotid artery and jugular vein. Heart rate and systemic blood pressure were monitored continuously. […] Venous and arterial blood samples (3 ml) were collected and centrifuged (1875 g, 15 min, 4° C.) and the plasma saved for subsequent measurement of irAM (immunoreactive AM). A similar amount of saline was infused into the animals to prevent hypovolaemia.
The animals were then killed and the lungs, liver, kidneys (en bloc with the adrenal glands) and heart were removed and gravity drained. […] Results are expressed as a percentage of total radioactivity injected. […]
Multiple group comparisons were performed by factorial ANOVA, followed, when a significant interaction was found, by the Bonferroni/Dunn t test. […] In the canine experiments, the effect of drugs on AM extraction was analyzed by two-tailed paired Student's t tests. […]

Data set [10] is described as follows: Biodistribution / organ retention of 125I-rAM(1-50) in rats, with and without antagonists. The data set is classed as in vivo, rat. The procedure:
The animals were then killed and the lungs, liver, kidneys (en bloc with the adrenal glands) and heart were removed and gravity drained. […] Results are expressed as a percentage of total radioactivity injected.
The drugs were given by either intraarterial (n=10 in each group) or intravenous (n=10 in each group) injection 5 min before the ^125I-rAM(1-50) bolus. Plasma samples and tissues were treated as described above.

Data set [11] can be described thus: In vivo single-pass pulmonary extraction of 125I-rAM(1-50) in dogs (indicator-dilution). Set-up: species or system dog. Conditions: for single-pass pulmonary extraction of 125I-rAM(1-50) after administration of the substance: dogs, intravenous bolus of 100 nmol, 5 min before. The procedure:
Dogs were anaesthetized and prepared as described in detail in reference, which is hereby incorporated by reference. A catheter was inserted into the carotid artery and positioned just above the aortic valve. This catheter was connected to a peristaltic pump for automated blood withdrawal. Another catheter was placed into the jugular vein and positioned in the right ventricular outflow tract to allow bolus injection of the study tracers. A bolus was prepared by adding 3.3 μCi of 125I-rAM(1-50) (2.9 pmol) to 3 ml of Evans-Blue-dye labelled albumin and 0.9% saline to give a final volume of 6 ml. The mixture was separated into three equal parts for the two successive experiments in each animal and to realize dilution-curve standards. A baseline single-bolus indicator-dilution experiment was performed.
The collected samples were processed and indicator-dilution curves constructed and analyzed as described in previously cited reference 13. Cardiac output and mean tracer AM extraction during the pulmonary transit time were computed from the curves. Mean tracer extraction corresponded to the difference between the areas of the outflow curve of the vascular reference (albumin) and that of the extracted tracer (AM). Recirculation of the tracers apparent in the terminal portion of the curves was removed by linear extrapolation of the semi-logarithmic down slopes.

Data set [12] deals with AM1 (CRLR+RAMP2) receptor, lungs of dogs. Nature of the data set: Displacement of labelled human adrenomedullin in the lungs of dogs. The data set is classed as binding, dog. Conditions: displacement of labelled hAM.
AM1 (CRLR+RAMP2) receptor, lungs of dogs, sequence (A0A8I3NWR4 25-462): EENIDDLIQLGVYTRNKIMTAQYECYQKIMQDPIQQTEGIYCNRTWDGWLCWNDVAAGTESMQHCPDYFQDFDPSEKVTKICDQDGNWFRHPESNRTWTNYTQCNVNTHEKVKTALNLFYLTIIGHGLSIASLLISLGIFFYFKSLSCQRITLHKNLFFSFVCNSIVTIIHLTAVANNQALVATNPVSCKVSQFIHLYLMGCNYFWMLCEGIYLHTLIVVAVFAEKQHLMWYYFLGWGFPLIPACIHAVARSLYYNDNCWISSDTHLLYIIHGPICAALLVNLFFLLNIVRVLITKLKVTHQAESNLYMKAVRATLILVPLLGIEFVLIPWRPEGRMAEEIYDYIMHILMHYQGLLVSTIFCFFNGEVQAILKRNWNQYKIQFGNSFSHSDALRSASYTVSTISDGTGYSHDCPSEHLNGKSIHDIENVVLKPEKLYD

In the case of `CC[C@H](C)[C@H](NC(=O)[C@H](CCC(N)=O)NC(=O)[C@H](Cc1c[nH]cn1)NC(=O)[C@H](C)NC(=O)[C@H](CC(C)C)NC(=O)[C@H](CCCCN)NC(=O)[C@H](CCC(N)=O)NC(=O)[C@@H](NC(=O)[C@@H](NC(=O)[C@@H]1CSSC[C@H](NC(=O)CNC(=O)[C@H](Cc2ccccc2)NC(=O)[C@H](CO)NC(=O)[C@H](CCCNC(=N)N)NC(=O)[C@H](CC(C)C)NC(=O)CNC(=O)[C@H](CCC(N)=O)NC(=O)[C@H](Cc2ccccc2)NC(=O)[C@H](CC(N)=O)NC(=O)[C@H](CC(N)=O)NC(=O)[C@H](CCSC)NC(=O)[C@H](CO)NC(=O)[C@H](CCC(N)=O)NC(=O)[C@H](CCCNC(=N)N)NC(=O)[C@H](Cc2ccc(O)cc2)NC(=O)CN(CCN(CCN(CC(=O)O)CC(=O)O)CC(=O)O)CC(=O)O)C(=O)N[C@@H](CCCNC(=N)N)C(=O)N[C@@H](Cc2ccccc2)C(=O)NCC(=O)N[C@@H]([C@@H](C)O)C(=O)N1)[C@@H](C)O)C(C)C)C(=O)N[C@@H](Cc1ccc(O)cc1)C(=O)N[C@@H](CCC(N)=O)C(=O)N[C@@H](Cc1ccccc1)C(=O)N[C@H](C(=O)N[C@@H](CC(=O)O)C(=O)N[C@@H](CCCCN)C(=O)N[C@@H](CC(=O)O)C(=O)N[C@@H](CCCCN)C(=O)N[C@@H](CC(=O)O)C(=O)N[C@@H](CC(N)=O)C(=O)N[C@H](C(=O)N[C@@H](C)C(=O)N1CCC[C@H]1C(=O)N[C@@H](CCCNC(=N)N)C(=O)N[C@@H](CO)C(=O)N[C@@H](CCCCN)C(=O)N[C@H](C(=O)N[C@@H](CO)C(=O)N1CCC[C@H]1C(=O)N[C@@H](CCC(N)=O)C(=O)NCC(=O)N[C@@H](Cc1ccc(O)cc1)C(N)=O)[C@@H](C)CC)C(C)C)[C@@H](C)O` [^99mTc-cyclic AM, metal not drawn], the distribution half-life entry in data set [1] is “less than two min”.

Turning to “^99mTc-linear AM: linear hAM(1-52) labelled directly with 99mTc”, the lung retention in data set [2] stood at 24%. Further, in [3], the lung retention result was “significantly retained by lungs”; the route of elimination result was “eliminated by the kidneys (mostly) and the liver”; the thyroid uptake entry is given as “minimal”; the “time for which lung uptake is maintained” value was “at least 1 hour”. Further, the “mean single pass extraction by the lung” value in [4] is listed as 21%. Besides, in [5] (control rats), the “kidney activity, % of total activity injected” value is on record as 27%±6% and the “kidney uptake, % of total activity injected” value was 23%±3%. Moreover, in [5] (monocrotaline treated rats), the “kidney activity, % of total activity injected” value is given as 11%±7% and the “kidney uptake, % of total activity injected” value is given as 10%±6%. This compound also had a plasma level in [6] (PAH (MCT) rats) of 2.08±0.65 % ID. Further, in data set [6] (control rats), the plasma level was determined as 1.25±0.28 % ID. The “plasma levels in PAH compared to control animals” value in [6] (fitted curves, rats) was “approximately two-fold higher”. Further, the “pulmonary uptake, image” value in [7] (dog) is “relatively specific and homogeneous pulmonary uptake”. Further, the “pulmonary uptake, image” value in data set [7] (rat) was “relatively specific and homogeneous pulmonary uptake”. In addition, in data set [8], the kidney retention was 20-30% and the “kidney retention, whole body imaging” value is “significantly retained by the kidney”. Further, the “reduction in kidney uptake after MCT” value (MCT versus control rats) was “about 50%”. Moreover, the “heart uptake, ex vivo” value (PAH (MCT) rats) came out at 0.77±0.46 % ID. The “lung uptake, in vivo biodistribution” value (PAH (MCT) rats, gamma camera, 30 minutes) came out at 4±1%. For the same compound, the “lung retention, ex vivo” value (PAH (MCT) rats, gamma counter, 30 minutes) amounted to 3±1%. Besides, where the note is “PAH versus control rats”, the “reduction in lung uptake in PAH” value is on record as ~70%. Further, where the note is “rat, in vivo”, the “heart uptake, ex vivo” value is given as 0.18±0.03 % ID and the “lung retention, ex vivo” value is listed as 11±2 % ID. For the same compound, the “liver, kidney and bladder activities, MCT group compared to control group” value (rats, 30 minutes) was “increased liver uptake but lower kidney and bladder activities”.

Usually IC50 stands for the concentration needed to halve the response being measured. The low end stands for higher potency, the high end for lower potency. As for “hAM(22-52): C-terminal human AM fragment that blocks the specific AM receptor”, the “effect on plasma kinetics of radiolabelled rAM(1-50)” value in data set [9] is given as “did not modify plasma kinetics”. Moreover, in [10] (given before the tracer), the “effect on activity of 125I-rAM(1-50) retained in kidneys” value is given as “elevated the retained activity” and the “effect on biodistribution of 125I-rAM(1-50)” value is given as “did not significantly modify this distribution”. In addition, the “effect on pulmonary first-pass retention of 125I-rAM(1-50)” value in data set [10] (prior administration) is recorded as “not affected”. The “single-pass pulmonary extraction of 125I-rAM(1-50) after administration of the substance” value in data set [11] is listed as 31.4±3.3%. The compound further displayed an IC50 in [12] of 810 nM.

Regarding “unlabelled rAM(1-50): unlabelled rat adrenomedullin (1-50), American Peptide (YRQSMNQGSRSTGCRFGTCTMQKLAHQIYQFTDKDKDGMAPRNKISPQGY; ends and bridges not checked; cysteine pairing not given here)”, in [9], the “effect on plasma kinetics of radiolabelled rAM(1-50)” value is on record as “did not modify plasma kinetics”. Further, in [10] (given before the tracer), the “effect on amount of 125I-rAM(1-50) retained by the liver, kidneys and heart” value is recorded as “significantly increased”; the “effect on lung activity of 125I-rAM(1-50)” value is given as “important reduction in lung activity”. Moreover, the “single-pass pulmonary extraction of 125I-rAM(1-50) after administration of the substance” value in [11] was found to be 21.9±2.4%. Besides, the “mean extraction of 125I-rAM(1-50) after injection of the substance” value in data set [11] (same dog, second experiment) is given as 12%.
